In one assay the test system is OVCAR8. Put plainly: MTT assay (cytotoxicity), OVCAR8. Type of assay: cell-based. The following applies: Homo sapiens, OVCAR-8, 72 h, drug concentration causing a 50% decrease in cell population. The method, then: (§1) The evaluation of cytotoxicity was based on the reduction of MTT dye by viable cells to give purple formazan products, which can be measured spectrophotometrically at 540 nm. One hundred eighty microliters of cancer cells were seeded into 96-well plates at 3,500-4,000 cells/well and incubated at 37° C. overnight before the indicated treatments. After 72 h, 20 μl of MTT solution (3 mg/ml) was added and incubated again for 3 h. After removal of media and solubilization of formazan crystals in 150 μL of DMSO, the absorbance was measured at 570 nm. Percentage of cell growth inhibition was expressed as 1-[(A−B)/(C−B)]×100% (A, B and C were the absorbance values from experimental, blank and control cells, respectively).
(§2) KJA derivatives were tested by the MTT assay against five human cancer cell lines including ovarian cancer cell lines (OVCAR-8, NCI/ADR-RES and SKOV3) and pancreatic cancer cell lines (MIA PaCa-2 and Pac-1). […] It is important to note that the NCI/ADR-RES cell line shares a large number of karyotypic abnormalities with OVCAR-8 but expresses high levels of MDR1 (multidrug resistance protein 1)/P-glycoprotein (see, e.g., Xu, S.; et al., Proceedings of the National Academy of Sciences 2012, 109, 16348-16353), resulting in resistance to multiple anticancer drugs in clinical use, including paclitaxel and doxorubicin.
(In general: Formazan colour is commonly taken as a measure of viable cells.)

Another assay has as its system NCI/ADR-RES. The assay is described as follows: MTT assay (cytotoxicity), NCI/ADR-RES. Type of assay: cell-based, human. The conditions noted are these: Homo sapiens, NCI/ADR-RES; MTT, 72 h; drug concentration causing a 50% decrease in cell population. The method, then:
as §1, §2

A further assay deals with SKOV3. The assay is described as follows: MTT assay (cytotoxicity), SKOV3. Type of assay: cell-based. The conditions noted are these: Homo sapiens, SK-OV-3, 72 h, drug concentration causing a 50% decrease in cell population. The method, then:
as §1, §2

The next assay relates to MIA PaCa-2. Put plainly: MTT assay (cytotoxicity), MIA PaCa-2. Type of assay: cell-based. The following applies: Homo sapiens, 72 h, drug concentration causing a 50% decrease in cell population. The method, then:
as §1, §2

A further assay deals with Panc1. Put plainly: MTT assay (cytotoxicity), Panc1. Type of assay: cell-based. The conditions noted are these: Homo sapiens, PANC-1, 72 h, drug concentration causing a 50% decrease in cell population. The method, then:
as §1, §2

Assay [1] has as its system C-MYC. Put plainly: Western blotting of C-MYC protein levels in cancer cells. The conditions noted are these: NCI/ADR-RES cells; 0.5 μM; positive control. Type of assay: cell-based, human. The method, then: Cells (5×10^5) were cultured in 6-well plate and treated with KJA03 at designated concentrations. After treatment, cells were lysed with cell lysis buffer on ice at 4° C., sonicated for 3 min, centrifuged (12,000 rpm, 10 min, 4° C.) and then, the supernatant was collected. Protein concentrations of supernatants were evaluated with BCA assay. Proteins were resolved in 10% SDS/PAGE and electrotransferred to Immun-Blot PVDF membrane (Bio-Rad). After blocking with 5% milk in TBST (Tris-buffered saline with 0.1% Tween 20), membranes were probed with primary antibodies (anti-PARP, anti-caspase 3 and anti-GAPDH) 1:1000 dilutions overnight at 4° C. Membranes were then washed with TBST (5 min×3), incubated with Dylight 800-conjugated secondary antibodies 1:7500 dilutions in 5% milk for 1 h at room temperature, and washed with TBST (5 min×3). Fluorescent signal was then scanned by Odyssey Imaging Systems (LI-COR Biosciences).
The effect of KJA03 on the MYC protein levels, including C-MYC and N-MYC, NCI/ADR-RES cells were treated with KJA03 at concentration of 0.1 (half IC50) and 0.2 (IC50) μM for 24 and 48 h. […] It has previously been reported that JQ1 treatment leads to down-regulation of c-MYC protein levels in osteosarcoma, leukemia and lymphoma cells (see, e.g., Mertz, J. A.; et al., Proceedings of the National Academy of Sciences 2011, 108, 16669-16674).
Experiments were conducted to further repeat the experiment and JQ1 was chosen as a positive control. As expected, expression of C-MYC was reduced by KJA03 at 24 h of treatment, correlated with previous experiment (FIG. 3).
Experiments were conducted that further performed a time-course experiment to evaluate C-MYC suppression including 2, 6, 8 24 and 48 h at concentration of 0.2 μM. To define the specificity of MYC suppression in further detail, we treated cells with a range of compound concentrations at 24 h. […] To determine whether KJA03 can suppress C-MYC in different cell lines, we next investigated the level of C-MYC in response to treatment with KJA03 at 0.2 μM using other three different OVCAR8, MIA PaCa-2 and Panc-1 cell lines.
(In general: Immunoblotting shows a protein as a band on a membrane.)

The test system of assay [2] is c-MYC. The following applies: osteosarcoma, leukemia and lymphoma cells; cited from earlier work.

Some results are limits rather than exact numbers.

For orientation: IC50 means the concentration at which inhibition is half-maximal. Low values mean inhibition by little substance, high ones a need for much substance. With `O=c1onc(-c2ccc(Cl)cc2)n1-c1ccccc1-c1nc(-c2ccc(Cl)cc2)no1` [KJA02, 3-(4-Chlorophenyl)-4-(2-(3-(4-chlorophenyl)-1,2,4-oxadiazol-5-yl)phenyl)-1,2,4-oxadiazol-5(4H)-one], the IC50 amounted to 1.96 ± 0.42 µM in the assay on OVCAR8; 4.16 ± 2.61 µM in the assay with NCI/ADR-RES; 11.2 µM in the assay with SKOV3; 1.12 µM in the assay on MIA PaCa-2; 1.51 µM with Panc1.
The like results for `O=c1onc(-c2ccccc2F)n1-c1ccccc1-c1nc(-c2ccccc2F)no1` [KJA17, 3-(2-Fluorophenyl)-4-(2-(3-(2-fluorophenyl)-1,2,4-oxadiazol-5-yl)phenyl)-1,2,4-oxadiazol-5(4H)-one] were, in that order, 9.12 ± 0.88 µM, 9.42 ± 1.61 µM, 25.6 µM, 1.43 µM and 3.17 µM.
As for `O=c1onc(-c2ccccc2)n1-c1ccccc1-c1nc(-c2ccccc2)no1` [KJA01, 3-Phenyl-4-(2-(3-phenyl-1,2,4-oxadiazol-5-yl)phenyl)-1,2,4-oxadiazol-5(4H)-one], the half-maximal inhibitory concentration (IC50) was found to be 4.65 ± 2.05 µM in the assay with OVCAR8; 4.31 ± 0.55 µM in the assay on NCI/ADR-RES; 5.82 µM in the assay with SKOV3; 2.49 µM with MIA PaCa-2; 2.16 µM in the assay with Panc1.
The like results for `COc1cc(-c2nc(-c3ccccc3)no2)c(-n2c(-c3ccccc3)noc2=O)cc1OC` [KJA06, 4-(4,5-Dimethoxy-2-(3-phenyl-1,2,4-oxadiazol-5-yl)phenyl)-3-phenyl-1,2,4-oxadiazol-5(4H)-one] were, in that order, greater than 30 µM, greater than 30 µM, greater than 30 µM, greater than 30 µM and greater than 30 µM.
The like results for `COc1cc(-c2nc(-c3ccccc3Cl)no2)c(-n2c(-c3ccccc3Cl)noc2=O)cc1OC` [KJA10, 3-(2-Chlorophenyl)-4-(2-(3-(2-chlorophenyl)-1,2,4-oxadiazol-5-yl)-4,5-dimethoxyphenyl)-1,2,4-oxadiazol-5(4H)-one] were, in that order, 0.71 ± 0.08 µM, 2 ± 0.76 µM, 3.23 ± 0.37 µM, 0.71 µM and 1.08 µM.
For the compound `Cc1sc2c(c1C)C(c1ccc(Cl)cc1)=N[C@@H](CC(=O)OC(C)(C)C)c1nnc(C)n1-2` [JQ1, reference compound], the C-MYC expression entry in the assay with C-MYC [1] is listed as “did not inhibit C-MYC expression”. The c-MYC protein levels entry with c-MYC [2] was “down-regulation”.
As to `O=c1onc(-c2ccc(F)cc2)n1-c1ccccc1-c1nc(-c2ccc(F)cc2)no1` [KJA04, 3-(4-Fluorophenyl)-4-(2-(3-(4-fluorophenyl)-1,2,4-oxadiazol-5-yl)phenyl)-1,2,4-oxadiazol-5(4H)-one], the 50% inhibitory concentration (IC50) was determined as 7.21 ± 1.55 µM with OVCAR8; 7.63 ± 3.01 µM in the assay with NCI/ADR-RES; 20.9 µM in the assay with SKOV3; 5.17 µM in the assay with MIA PaCa-2; 3.22 µM in the assay with Panc1.
On the same counts, the results for `COc1cc(-c2nc(-c3ccc(Cl)cc3)no2)c(-n2c(-c3ccc(Cl)cc3)noc2=O)cc1OC` [KJA09, 3-(4-Chlorophenyl)-4-(2-(3-(4-chlorophenyl)-1,2,4-oxadiazol-5-yl)-4,5-dimethoxyphenyl)-1,2,4-oxadiazol-5(4H)-one] are greater than 30 µM, greater than 30 µM, greater than 30 µM, greater than 30 µM and greater than 30 µM.
Regarding `CC(=O)O[C@H]1C(=O)[C@@]2(C)[C@H]([C@H](OC(=O)c3ccccc3)[C@]3(O)C[C@H](OC(=O)[C@H](O)[C@@H](NC(=O)c4ccccc4)c4ccccc4)C(C)=C1C3(C)C)[C@]1(OC(C)=O)CO[C@@H]1C[C@@H]2O` [Paclitaxel, reference compound], the half-inhibitory concentration (IC50) in the assay with OVCAR8 is less than 0.04 µM; in the assay with NCI/ADR-RES it was greater than 30 µM; in the assay on MIA PaCa-2 it was less than 0.04 µM; in the assay on Panc1, less than 0.04 µM.

The values above are taken from patent publication US11214567B2, “Small molecule inhibitors of MYC and uses thereof” (The Regents of the University of Michigan, priority 2017, dated 2022).
